In PMC6537213, “Ellagic acid microspheres restrict the growth of Babesia and Theileria in vitro and Babesia microti in vivo” (Parasites & Vectors, 2019):

Key:
B. microti = test: nested PCR detection of B. microti ss-rRNA gene in blood of treated mice; type: in vivo, Babesia microti; conditions: day 42; 20 mg/kg AQ
[1] = tested on: Babesia microti (Munich strain); test: in vivo growth inhibition and drug combination assays in B. microti-infected BALB/c mice; conditions: second assay; for peak parasitemia level: 5 days, DDW control 58.3%
Description: (§1) A microaerophilic stationary-phase culture system was used to maintain Babesia parasite cultures for a long time. Briefly, B. caballi (USDA strain) was grown using equine red blood cells (RBCs) in GIT medium supplemented with 40% equine serum. Theileria equi (USDA strain) was grown in equine RBCs in Medium 199 (M199; Sigma-Aldrich, Tokyo) supplemented with 40% equine serum, and hypoxanthine (MP Biomedicals, Santa Ana, CA, USA) at a final concentration of 13.6 μg/ml was used as a vital supplement. Babesia bovis (Texas strain) and B. bigemina (Argentina strain) were grown in bovine RBCs in M199 medium supplemented with 40% bovine serum. Meanwhile, B. divergens (Germany strain) was grown in bovine RBCs in medium RPMI 1640 (Sigma-Aldrich, Tokyo) supplemented with 40% bovine serum. All media included 60 U/ml penicillin G, 60 μg/ml streptomycin and 0.15 μg/ml amphotericin B (Sigma-Aldrich, St. Louis, MO, USA) to prevent bacterial contamination. The cultures were incubated at 37 °C in a humidified chamber with an atmosphere of 5% CO2, 5% O2 and 90% N2. Babesia microti (Munich strain) was recovered from − 80 °C stock, intraperitoneally injected in two 8-week old female BALB/c mice (Clea Japan, Tokyo, Japan), and the parasitemia was monitored every 2 days. The mice were euthanized using an anesthesia system containing isoflurane after parasitemia reached approximately 30%, and blood was collected by cardiac puncture to initiate the in vivo experiment. The animal experiment was conducted in accordance with the Regulations for Animal Experiments of Obihiro University of Agriculture and Veterinary Medicine, Japan (animal experiment accession number: 290168).
In vivo growth inhibition assays of EA, β-CD EA and APSP EA were performed in B. microti-infected BALB/c mice in accordance with the previous protocol in two separate trials. […] The mice in groups 2–8 were intraperitoneally (i.p.) injected with 0.5 ml of inoculum (1 × 10^7 B. microti-iRBCs). Group 1 was left uninfected and untreated as a negative control. When the average parasitemia in all mice reached 1%, drug treatment was initiated for 5 consecutive days. […] DA at a concentration of 25 mg/kg body weight (BW) was administrated i.p. to the third group as a reference drug control.

[2] = tested on: Babesia bovis (Texas strain); test: in vitro growth inhibition assay (SYBR Green I fluorescence), single drug and 1:1 combination; type: cell-based; conditions: Babesia bovis, in Bos taurus, 96 h, B. bovis in vitro culture, 4 days
Description: as §1
(§2) Assays were performed in accordance with the previously described protocol. Briefly, B. bovis, B. bigemina, B. divergens, B. caballi and T. equi cultures were harvested and adjusted to 1% parasitemia with fresh RBCs to start the inhibition assay. The assays were carried out using 96-well microtiter plates where only the 60 inner wells were used, while the peripheral wells were filled with sterile distillate water to reduce evaporation during incubation. In five 96-well plates, a volume of 2.5 µl each of B. bigemina- and B. bovis-iRBCs and 5 µl each of B. divergens-, B. caballi- and T. equi-iRBCs were added to each well in triplicate and mixed with a culture medium containing the drug concentrations to a total volume of 100 µl. Various concentrations of EA, β-CD EA, APSP EA, DA, CF and AQ were dissolved in a culture medium using two-fold dilution. Wells containing DMSO at a final concentration of 0.4% and iRBCs were used as a positive control, while wells with non-infected RBCs and culture medium were used as a negative control. Additionally, a drug combination assay was performed in parallel with the single drug assay at a constant ratio of 1:1, as described previously. […] The plates were incubated in a humidified incubator with 5% CO2, 5% O2 and 90% N2 for 4 days without changing the medium. On day 4, 100 µl of a lysis buffer containing 2 × SG1 was added to each well. The plates were wrapped with aluminum foil to avoid direct light exposure and incubated at room temperature. After 6 h, fluorescence values were measured using a fluorescence spectrophotometer (Fluoroskan Ascent; Thermo LabSystems, Oceanside, CA, USA) with excitation and emission wavelengths of 485 and 518 nm, respectively. The fluorescence data were subtracted from the negative control and used to calculate the IC50. To calculate the degree of association, the growth-inhibition values obtained were entered into CompuSyn software, based on the combination index (CI) values. […] The experiments were repeated three times.

[3] = tested on: Theileria equi (USDA strain); test: as above; type: cell-based; conditions: Theileria equi, 96 h, T. equi in vitro culture, 4 days
Description: as §1, §2

[4] = tested on: B. divergens (Germany strain); test: as above; type: cell-based, Babesia divergens; conditions: Babesia divergens, 96 h, B. divergens in vitro culture, 4 days
Description: as §1
(§3) Assays were performed in accordance with the previously described protocol. Briefly, B. bovis, B. bigemina, B. divergens, B. caballi and T. equi cultures were harvested and adjusted to 1% parasitemia with fresh RBCs to start the inhibition assay. The assays were carried out using 96-well microtiter plates where only the 60 inner wells were used, while the peripheral wells were filled with sterile distillate water to reduce evaporation during incubation. In five 96-well plates, a volume of 2.5 µl each of B. bigemina- and B. bovis-iRBCs and 5 µl each of B. divergens-, B. caballi- and T. equi-iRBCs were added to each well in triplicate and mixed with a culture medium containing the drug concentrations to a total volume of 100 µl. Various concentrations of EA, β-CD EA, APSP EA, DA, CF and AQ were dissolved in a culture medium using two-fold dilution. Wells containing DMSO at a final concentration of 0.4% and iRBCs were used as a positive control, while wells with non-infected RBCs and culture medium were used as a negative control. Additionally, a drug combination assay was performed in parallel with the single drug assay at a constant ratio of 1:1, as described previously. […] The plates were incubated in a humidified incubator with 5% CO2, 5% O2 and 90% N2 for 4 days without changing the medium. On day 4, 100 µl of a lysis buffer containing 2 × SG1 was added to each well. The plates were wrapped with aluminum foil to avoid direct light exposure and incubated at room temperature. After 6 h, fluorescence values were measured using a fluorescence spectrophotometer (Fluoroskan Ascent; Thermo LabSystems, Oceanside, CA, USA) with excitation and emission wavelengths of 485 and 518 nm, respectively. The fluorescence data were subtracted from the negative control and used to calculate the IC50. […]

B. caballi (USDA strain) = test: as above; type: cell-based, Babesia caballi; conditions: Babesia caballi, 96 h, B. caballi in vitro culture, 4 days
Description: as §1, §3

[5] = tested on: B. bigemina (Argentina strain); test: as above; type: cell-based, Babesia bigemina; conditions: Babesia bigemina, 96 h, B. bigemina in vitro culture, 4 days
Description: as §1, §3

[6] = tested on: mouse embryonic fibroblast (NIH/3T3) cell line; test: cytotoxicity assay (CCK-8); type: cell-based; conditions: for EC50: Mus musculus, NIH3T3, NIH/3T3 cells, 24 h exposure, CCK-8
Description: (§4) The MDBK cell line was maintained in 75 cm^2 culture flasks with Minimum Essential Medium Eagle (MEM; Gibco, Grand Island, NY, USA), while Dulbecco’s Modified Eagle’s Medium (DMEM; […] Each medium was supplemented with 10% fetal bovine serum, 0.5% penicillin/streptomycin (Gibco), and an additional 1% glutamine. Every 3 to 4 days, the medium was changed, and the cells were incubated until approximately 80% confluent. The cells were free from mycoplasma contamination after being checked by staining with 4,6-diamidino-2-phenylindole dihydrochloride (DAPI; Sigma-Aldrich, St. Louis). The cell detachment from the culture flask was done using TrypLE^TM Express (Gibco) after washing two times with Dulbecco’s phosphate-buffered saline (DPBS). Subsequently, viable cells were counted using a Neubauer Improved C-Chip (NanoEnTek Inc., Seoul, Korea) after staining with 0.4% trypan blue solution. The drug-exposure viability assay was performed in accordance with the recommendation for the Cell Counting Kit-8 (CCK-8; Dojindo, Kumamoto, Japan). Briefly, in a 96-well plate, 100 µl of cells at a density of 5 × 10^4 cells/ml were seeded per well and allowed to attach to the plate for 24 h at 37 °C in a humidified incubator with 5% CO2. Ten microliters of drug diluted two-fold were added to each well to a final concentration of 0.781 to 800 µM in triplicate. Wells with only a culture medium were used as blanks, while wells containing cells and a medium with 0.5% DMSO were used as positive controls. Drug exposure lasted for 24 h. After 24 h, 10 µl of CCK-8 was added, and the plate was further incubated for 3 h. Absorbance was measured at 450 nm using a microplate reader.

[7] = tested on: Madin-Darby bovine kidney (MDBK) cell line; test: cytotoxicity assay (CCK-8); type: cell-based; conditions: for EC50: Bos taurus, 24 h, MDBK cells, 24 h exposure, CCK-8
Description: as §4

[8] = tested on: human foreskin fibroblast (HFF) cell line; test: cytotoxicity assay (CCK-8); type: cell-based; conditions: for EC50: Homo sapiens, HFF cells, 24 h exposure, CCK-8
Description: as §4

[9] = EC50 NIH/3T3 / IC50 B. bigemina
[10] = EC50 NIH/3T3 / IC50 B. divergens

SMILES | IC50 [2] | IC50 [3] | IC50 [4] | IC50 (B. caballi (USDA strain)) | IC50 [5] | Selective indices NIH/3T3 [6, 9] | Selective indices NIH/3T3 ([6]; EC50 NIH/3T3 / IC50 B. caballi) | Selective indices NIH/3T3 [6, 10] | Selective indices NIH/3T3 ([6]; EC50 NIH/3T3 / IC50 T. equi) | EC50 [6] | EC50 ([7]; MDBK) | Selective indices MDBK ([7]; EC50 MDBK / IC50 B. bigemina) | Selective indices MDBK ([7]; EC50 MDBK / IC50 B. caballi) | Selective indices MDBK ([7]; EC50 MDBK / IC50 B. divergens) | Selective indices HFF ([8]; EC50 HFF / IC50 B. bigemina) | Selective indices HFF ([8]; EC50 HFF / IC50 B. caballi) | Selective indices HFF ([8]; EC50 HFF / IC50 B. divergens) | Selective indices HFF ([8]; EC50 HFF / IC50 T. equi) | EC50 [8] | also measured
O=C1C(O)=C([C@H]2CC[C@H](c3ccc(Cl)cc3)CC2)C(=O)c2ccccc21 [AQ, atovaquone] | 0.039 ± 0.002 µM | 0.095 ± 0.0655 µM | 0.038 ± 0.002 µM | 0.102 ± 0.0141 µM | 0.701 ± 0.04 µM | ˃ 12.7 | ˃ 30.4 | ˃ 18.5 | ˃ 13.4 | > 100 µM | > 100 µM | ˃ 12.7 | ˃ 30.4 | ˃ 18.5 | ˃ 12.7 | ˃ 30.4 | ˃ 18.5 | ˃ 13.4 | > 100 µM | parasite DNA in blood (nPCR) (B. microti): not detected; day p.i. from which parasitemia was undetectable by microscopic examination ([1]; 20 mg/kg AQ): 15 day p.i.; peak parasitemia level ([1]; 20 mg/kg AQ oral): 4.3%; inhibition of cell viability ([6]; NIH/3T3, 100 µM, separate assay): did not show any inhibition; Selective indices MDBK ([7]; EC50 MDBK / IC50 T. equi): ˃ 13.4; inhibition of cell viability ([7]; MDBK, 100 µM, separate assay): did not show any inhibition; inhibition of cell viability ([8]; HFF, 100 µM, separate assay): did not show any inhibition
CC(C)/N=c1\cc2n(-c3ccc(Cl)cc3)c3ccccc3nc-2cc1Nc1ccc(Cl)cc1 [CF, clofazimine] | 8.24 ± 1.7 µM | 2.88 ± 0.9 µM | 13.8 ± 4.3 µM | 7.95 ± 1.8 µM | 5.73 ± 1.9 µM | ˃ 17.5 | ˃ 12.6 | ˃ 7.2 | ˃ 34.7 | > 100 µM | 34 ± 3.4 µM | 6.1 | 4.4 | 2.5 | ˃ 17.5 | ˃ 12.6 | ˃ 7.2 | ˃ 34.7 | > 100 µM | day p.i. from which parasitemia was undetectable by microscopic examination ([1]; 20 mg/kg CF): 16 day p.i.; peak parasitemia level ([1]; 20 mg/kg CF oral): 4.9%; Selective indices NIH/3T3 ([6]; EC50 NIH/3T3 / IC50 B. bovis): ˃ 12.1; Selective indices MDBK ([7]; EC50 MDBK / IC50 B. bovis): 4.2; Selective indices HFF ([8]; EC50 HFF / IC50 B. bovis): ˃ 12.1
